Results taken from ChEMBL document CHEMBL1201862, “PubChem BioAssay data set” (2004).
pIC50: −log10 of the molar value. Active and inactive are the calls of the source.

Assays:
[1] = luciferase reporter signal suppression in cells – H4 neuroglioma cells, luminescence, dose response (AID 1990); assay type: functional, cell-based
cells [2] = assay type: functional, cell-based
[3] = Luminescence Cell-Based Dose Response HTS to Identify Inhibitors of 5'UTR Stem-Loop Driven Prion Protein mRNA Translation in H4 Neuroglioblastoma Cells. [Related pubchem assays: 1827 (Project Summary), 1813 (Primary HTS)]; assay type: functional
[4] = target: T1, Heat shock factor protein 1 (Mus musculus, UniProt P38532); assay: decrease of HSF1-responsive luciferase luminescence – cell-based, NIH3T3, dose retest, confirmation (AID 2382); assay type: functional;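 also: NIH3T3 fibroblasts with HSF1-driven luciferase reporter stressed by proteasome inhibitor MG132; luminescence from HSF1-driven luciferase expression after 8 hours of MG132 stress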
T1 sequence (P38532 whole entry): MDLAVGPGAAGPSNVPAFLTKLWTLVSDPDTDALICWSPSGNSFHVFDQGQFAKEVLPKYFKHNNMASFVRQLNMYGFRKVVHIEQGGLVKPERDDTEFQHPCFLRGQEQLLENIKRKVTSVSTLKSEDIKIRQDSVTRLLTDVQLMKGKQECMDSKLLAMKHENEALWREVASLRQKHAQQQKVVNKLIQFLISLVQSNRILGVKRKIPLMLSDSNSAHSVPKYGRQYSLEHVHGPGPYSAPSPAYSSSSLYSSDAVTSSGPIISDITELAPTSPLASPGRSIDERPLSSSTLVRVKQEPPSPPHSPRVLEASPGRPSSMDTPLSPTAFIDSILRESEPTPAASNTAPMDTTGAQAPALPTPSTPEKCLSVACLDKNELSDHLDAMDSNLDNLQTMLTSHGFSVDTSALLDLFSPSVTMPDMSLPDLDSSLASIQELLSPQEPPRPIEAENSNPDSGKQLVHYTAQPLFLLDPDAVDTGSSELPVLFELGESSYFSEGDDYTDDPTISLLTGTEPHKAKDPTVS

[5] = alpha-synuclein stem-loop luciferase translation blockers – H4 neuroglioma cells, luminescence, confirmation (AID 1988); assay type: functional, cell-based
[6] = Trypanosoma cruzi growth suppression in host cells – NIH3T3 host cells, beta-gal luminescence, confirmation (AID 2044); assay type: functional, cell-based;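 also: intracellular parasites grown in NIH/3T3 mouse fibroblasts as host cells; luminescent beta-galactosidase reporter signal from transgenic T. cruzi replicating inside host cells; inhibitors lower the luminescence signal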
cells [7] = assay type: functional, cell-based; remark: listed apart in the source
[8] = target: T2, Kappa-type opioid receptor (Homo sapiens, UniProt P41145); assay type: functional
T2 sequence (P41145 whole entry): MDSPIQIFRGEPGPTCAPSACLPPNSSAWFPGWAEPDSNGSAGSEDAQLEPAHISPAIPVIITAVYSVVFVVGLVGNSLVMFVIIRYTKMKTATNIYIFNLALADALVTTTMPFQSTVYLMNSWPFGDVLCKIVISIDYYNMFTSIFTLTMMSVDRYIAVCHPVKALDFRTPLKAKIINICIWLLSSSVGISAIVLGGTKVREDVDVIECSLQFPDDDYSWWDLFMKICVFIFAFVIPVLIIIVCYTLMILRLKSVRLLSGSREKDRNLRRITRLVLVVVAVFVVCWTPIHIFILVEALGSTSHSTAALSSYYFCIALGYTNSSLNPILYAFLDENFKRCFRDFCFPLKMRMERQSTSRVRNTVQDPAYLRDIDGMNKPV

[9] = NIH3T3 cell viability loss – ATP luminescence, mouse fibroblasts, counter-screen, dose response (AID 2010); assay type: functional, cell-based;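 also: cells exposed to compound for about 90 hours before reading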
Beta-galactosidase = Beta-galactosidase (Escherichia coli, UniProt Q8VNN2); assay type: functional
[10] = target: T2, Kappa-type opioid receptor; assay type: functional; remark: listed apart in the source
Exodeoxyribonuclease V = Exodeoxyribonuclease V (Escherichia coli (strain K12), UniProt P04993+P07648+P08394); assay: RecBCD inhibition via phage-restricted bacterial growth – absorbance, V66 E. coli, mutant T4 phage, counter-screen for AddAB inhibitor project, dose response (AID 492957); assay type: functional, cell-based, Escherichia coli str. K-12 substr. MG1655
Exodeoxyribonuclease V, sequence (P04993 whole entry): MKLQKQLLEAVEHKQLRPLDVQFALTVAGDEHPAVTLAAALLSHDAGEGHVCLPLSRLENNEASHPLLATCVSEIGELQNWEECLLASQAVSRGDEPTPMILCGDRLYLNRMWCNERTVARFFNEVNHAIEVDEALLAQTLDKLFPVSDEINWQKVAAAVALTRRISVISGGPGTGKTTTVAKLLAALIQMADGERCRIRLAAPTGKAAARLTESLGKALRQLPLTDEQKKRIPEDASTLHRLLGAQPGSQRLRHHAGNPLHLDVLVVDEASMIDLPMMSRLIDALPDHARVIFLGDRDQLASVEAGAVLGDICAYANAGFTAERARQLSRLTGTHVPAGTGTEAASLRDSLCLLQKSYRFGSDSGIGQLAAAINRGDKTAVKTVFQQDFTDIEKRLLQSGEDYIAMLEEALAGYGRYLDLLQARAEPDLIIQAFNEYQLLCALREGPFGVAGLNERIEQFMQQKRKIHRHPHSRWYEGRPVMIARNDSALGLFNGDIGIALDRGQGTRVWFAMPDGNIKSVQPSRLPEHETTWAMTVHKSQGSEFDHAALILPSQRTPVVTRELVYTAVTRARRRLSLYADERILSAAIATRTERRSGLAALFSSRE
Exodeoxyribonuclease V, sequence (P07648 whole entry): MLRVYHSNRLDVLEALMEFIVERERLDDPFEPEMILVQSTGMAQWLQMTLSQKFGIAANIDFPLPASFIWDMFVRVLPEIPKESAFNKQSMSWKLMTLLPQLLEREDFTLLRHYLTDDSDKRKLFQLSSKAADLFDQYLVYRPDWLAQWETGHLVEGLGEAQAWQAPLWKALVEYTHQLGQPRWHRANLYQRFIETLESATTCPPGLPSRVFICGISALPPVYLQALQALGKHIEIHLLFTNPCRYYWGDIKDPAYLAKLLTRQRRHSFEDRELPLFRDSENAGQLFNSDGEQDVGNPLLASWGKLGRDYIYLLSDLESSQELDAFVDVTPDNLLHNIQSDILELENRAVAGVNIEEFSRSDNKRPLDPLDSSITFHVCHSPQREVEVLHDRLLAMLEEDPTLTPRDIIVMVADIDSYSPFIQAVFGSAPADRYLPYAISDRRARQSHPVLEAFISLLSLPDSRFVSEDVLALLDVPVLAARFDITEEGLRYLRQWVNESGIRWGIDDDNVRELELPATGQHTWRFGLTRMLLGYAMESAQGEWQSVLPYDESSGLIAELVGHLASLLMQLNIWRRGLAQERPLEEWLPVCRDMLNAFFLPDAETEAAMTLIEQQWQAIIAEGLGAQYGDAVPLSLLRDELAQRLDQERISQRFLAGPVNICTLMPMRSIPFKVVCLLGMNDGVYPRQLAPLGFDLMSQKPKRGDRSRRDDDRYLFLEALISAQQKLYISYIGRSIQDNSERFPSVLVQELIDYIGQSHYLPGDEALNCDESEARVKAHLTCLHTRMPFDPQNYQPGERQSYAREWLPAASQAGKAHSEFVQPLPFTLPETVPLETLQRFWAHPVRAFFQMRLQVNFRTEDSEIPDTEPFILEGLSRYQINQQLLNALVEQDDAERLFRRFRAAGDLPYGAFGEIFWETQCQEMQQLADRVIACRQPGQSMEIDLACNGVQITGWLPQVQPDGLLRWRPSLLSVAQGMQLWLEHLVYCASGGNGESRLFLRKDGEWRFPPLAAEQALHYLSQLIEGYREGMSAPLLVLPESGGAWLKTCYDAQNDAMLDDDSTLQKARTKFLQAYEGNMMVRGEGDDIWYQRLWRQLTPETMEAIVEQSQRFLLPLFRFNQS
Exodeoxyribonuclease V, sequence (P08394 whole entry): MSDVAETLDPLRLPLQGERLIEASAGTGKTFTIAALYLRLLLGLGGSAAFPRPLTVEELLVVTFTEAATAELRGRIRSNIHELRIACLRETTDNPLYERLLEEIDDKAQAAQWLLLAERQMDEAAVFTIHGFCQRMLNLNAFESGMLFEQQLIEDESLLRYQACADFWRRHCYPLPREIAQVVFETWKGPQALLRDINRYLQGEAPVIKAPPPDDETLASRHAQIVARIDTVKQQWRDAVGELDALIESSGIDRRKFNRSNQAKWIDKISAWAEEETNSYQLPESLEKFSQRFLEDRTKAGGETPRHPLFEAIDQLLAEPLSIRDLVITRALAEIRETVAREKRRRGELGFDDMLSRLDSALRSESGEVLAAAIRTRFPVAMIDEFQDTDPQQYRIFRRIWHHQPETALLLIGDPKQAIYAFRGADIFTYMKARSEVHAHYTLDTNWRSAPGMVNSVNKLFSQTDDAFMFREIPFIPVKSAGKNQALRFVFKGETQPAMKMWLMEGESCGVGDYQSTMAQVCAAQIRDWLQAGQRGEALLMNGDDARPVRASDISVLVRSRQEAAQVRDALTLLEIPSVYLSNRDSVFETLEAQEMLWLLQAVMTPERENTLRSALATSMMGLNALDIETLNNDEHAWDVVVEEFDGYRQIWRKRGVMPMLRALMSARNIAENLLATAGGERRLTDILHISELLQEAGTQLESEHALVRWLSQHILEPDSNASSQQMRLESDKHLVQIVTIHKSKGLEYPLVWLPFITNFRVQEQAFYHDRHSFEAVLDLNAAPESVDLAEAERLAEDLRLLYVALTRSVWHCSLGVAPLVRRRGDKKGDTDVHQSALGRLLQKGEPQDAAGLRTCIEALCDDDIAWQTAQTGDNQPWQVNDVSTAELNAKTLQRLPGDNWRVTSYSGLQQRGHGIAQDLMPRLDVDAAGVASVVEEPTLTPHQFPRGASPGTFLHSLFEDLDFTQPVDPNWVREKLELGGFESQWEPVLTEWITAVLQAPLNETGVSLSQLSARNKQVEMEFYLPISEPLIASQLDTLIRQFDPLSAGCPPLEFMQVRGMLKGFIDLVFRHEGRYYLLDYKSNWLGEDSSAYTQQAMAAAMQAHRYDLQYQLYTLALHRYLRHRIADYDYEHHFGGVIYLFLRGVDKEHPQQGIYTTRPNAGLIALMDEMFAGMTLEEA

[11] = HEK-293T viability loss after treatment – luminescence, T-cell screen hits, cytotoxicity control for TCR NF-kB inhibitor project, dose response (AID 489026); assay type: functional, cell-based;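 also: cells exposed to compound about 14 hours before the viability readout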
Nonstructural protein 1 = Nonstructural protein 1 (Influenza A virus, UniProt Q194T2); assay type: functional, Influenza A virus (A/California/07/2009(H1N1))
Nonstructural protein 1, sequence (Q194T2 whole entry): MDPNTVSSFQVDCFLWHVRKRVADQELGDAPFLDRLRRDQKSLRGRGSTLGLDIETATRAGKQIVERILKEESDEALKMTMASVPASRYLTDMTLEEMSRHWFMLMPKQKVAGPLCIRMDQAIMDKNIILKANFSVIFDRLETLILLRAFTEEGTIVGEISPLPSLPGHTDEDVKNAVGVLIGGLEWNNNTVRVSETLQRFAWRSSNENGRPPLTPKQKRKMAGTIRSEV

[12] = Counterscreen for AddAB inhibitors: absorbance-based bacterial cell-based high throughput dose response assay for inhibitors of bacterial viability. [Related pubchem assays (depositor defined):AID435030, AID449728, AID449731, AID488942, AID488955, AID488956]; assay type: functional
HEK293 = assay: EBV LMP1 TES2 canonical NF-kB signalling blockers – cell-based, HEK293, luciferase, cherry-pick, dose response (AID 588343); assay type: functional; conditions: Homo sapiens
[13] = target: Heat shock protein HSP 90-alpha (Homo sapiens, UniProt P07900); assay type: functional, organism-based
INS1 = assay: INS-1E survival protection against cytokine death – cell-based, luminescence, retest, dose response (AID 449756); assay type: functional; conditions: Rattus norvegicus;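 also: cell death triggered by IL-1 beta plus TNF-alpha plus IFN-gamma mixture; protective hits raise ATP signal compared with cytokine alone wells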
[14] = target: T3, Alkaline phosphatase, tissue-nonspecific isozyme (Homo sapiens, UniProt P05186)
T3 sequence (P05186 whole entry): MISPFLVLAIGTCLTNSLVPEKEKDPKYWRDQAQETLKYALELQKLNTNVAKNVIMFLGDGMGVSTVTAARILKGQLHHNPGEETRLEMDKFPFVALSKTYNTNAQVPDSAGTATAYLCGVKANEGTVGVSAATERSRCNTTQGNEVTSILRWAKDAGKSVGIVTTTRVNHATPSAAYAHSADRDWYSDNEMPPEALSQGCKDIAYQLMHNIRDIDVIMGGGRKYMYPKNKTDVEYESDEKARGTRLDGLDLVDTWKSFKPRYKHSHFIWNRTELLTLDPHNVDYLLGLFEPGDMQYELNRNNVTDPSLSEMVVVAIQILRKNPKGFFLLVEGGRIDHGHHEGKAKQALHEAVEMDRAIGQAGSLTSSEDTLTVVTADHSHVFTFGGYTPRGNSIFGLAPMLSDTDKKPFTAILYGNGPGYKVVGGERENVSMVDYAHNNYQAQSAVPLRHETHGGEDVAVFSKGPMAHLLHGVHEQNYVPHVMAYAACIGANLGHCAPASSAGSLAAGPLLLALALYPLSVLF

[15] = target: Intestinal-type alkaline phosphatase (Mus musculus, UniProt P24822); assay: PubChem AID 488874; assay type: functional
Intestinal-type alkaline phosphatase (Mus musculus, UniProt P24822), sequence (P24822 whole entry): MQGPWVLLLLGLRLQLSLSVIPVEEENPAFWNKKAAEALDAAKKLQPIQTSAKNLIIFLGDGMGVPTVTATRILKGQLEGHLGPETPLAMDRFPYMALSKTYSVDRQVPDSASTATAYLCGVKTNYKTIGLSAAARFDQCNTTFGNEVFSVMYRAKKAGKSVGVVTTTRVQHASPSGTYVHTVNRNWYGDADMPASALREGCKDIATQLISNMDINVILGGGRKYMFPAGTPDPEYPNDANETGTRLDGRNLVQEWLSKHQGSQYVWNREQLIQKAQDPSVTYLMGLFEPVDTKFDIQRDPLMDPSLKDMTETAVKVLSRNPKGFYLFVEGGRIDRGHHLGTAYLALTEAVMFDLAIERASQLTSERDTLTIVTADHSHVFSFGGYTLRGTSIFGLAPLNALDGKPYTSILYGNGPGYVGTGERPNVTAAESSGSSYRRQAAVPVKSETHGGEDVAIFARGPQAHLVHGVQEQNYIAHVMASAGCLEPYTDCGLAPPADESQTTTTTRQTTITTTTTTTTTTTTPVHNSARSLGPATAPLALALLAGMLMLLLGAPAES

[16] = target: T4, Intestinal-type alkaline phosphatase (Homo sapiens, UniProt P09923); assay: human intestinal alkaline phosphatase activators, dose response, biochemical, luminescence, uHTS hits (AID 463120); assay type: functional
T4 sequence (P09923 whole entry): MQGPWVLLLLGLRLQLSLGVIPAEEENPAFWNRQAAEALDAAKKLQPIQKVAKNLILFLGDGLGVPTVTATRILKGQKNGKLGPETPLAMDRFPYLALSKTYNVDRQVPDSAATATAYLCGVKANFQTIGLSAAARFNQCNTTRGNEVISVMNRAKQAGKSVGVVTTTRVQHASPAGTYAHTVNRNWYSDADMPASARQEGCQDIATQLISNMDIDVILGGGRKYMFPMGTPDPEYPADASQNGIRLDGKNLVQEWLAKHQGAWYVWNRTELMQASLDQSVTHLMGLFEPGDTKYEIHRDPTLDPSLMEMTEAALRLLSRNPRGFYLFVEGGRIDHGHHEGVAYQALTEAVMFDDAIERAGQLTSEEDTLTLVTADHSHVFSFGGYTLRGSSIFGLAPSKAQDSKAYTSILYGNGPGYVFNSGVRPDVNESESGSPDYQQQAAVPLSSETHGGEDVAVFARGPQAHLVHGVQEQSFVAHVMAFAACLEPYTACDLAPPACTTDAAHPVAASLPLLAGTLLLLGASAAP

[17] = target: T4, Intestinal-type alkaline phosphatase; assay: activation of human intestinal alkaline phosphatase – biochemical, luminescent, uHTS hits, set 2, dose response (AID 488817); assay type: functional;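 also: potency of activators that raise enzyme activity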
[18] = target: T3, Alkaline phosphatase, tissue-nonspecific isozyme; assay: activation of tissue-nonspecific alkaline phosphatase – biochemical, TNAP isozyme, human IAP uHTS hits, selectivity assay for human IAP activator project, dose response (AID 488886); assay type: functional;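 also: potency of compounds raising TNAP activity as a selectivity check on IAP activators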
cells [19] = assay type: functional

Compound: Oc1ccc2ccccc2c1N=Nc1ccccn1
- EC50 [1]: 10.8 µM (active)
- EC50 (cells [2]): 24 µM (active)
- EC50 [3]: 2.43 µM (active)
- EC50 [4]: 11.4 µM (active)
- EC50 [5]: 2.29 µM (active)
- EC50 [6]: 0.471 µM (active)
- EC50 (cells [7]): 41 µM (active)
- IC50 [8]: 5.12 µM (active)
- EC50 [9]: 3.4 µM (active)
- EC50 (Beta-galactosidase): 25.7 µM (active)
- pIC50 [10]: < 4.49
- IC50 (Exodeoxyribonuclease V): > 118 µM (inactive)
- IC50 [11]: > 80 µM (inactive)
- IC50 (Nonstructural protein 1): 13.9 µM (active)
- IC50 [12]: > 118 µM (inactive)
- AC50 (HEK293): 7.41 µM (active)
- AC50 [13]: 2.7 µM (active)
- AC50 (INS1): 0.746 µM (active)

Compound: C=CCN1C(=O)C2(NNc3ccccc3O2)c2ccccc21 (centres undefined)
- EC50 [14]: < 0.195 µM (not active)
- IC50 [15]: 14.2 µM (active)
- EC50 [16]: 11.3 µM (active)
- EC50 [17]: 0.514 µM (active)
- EC50 [18]: 0.636 µM (active)
- IC50 (cells [19]): 11.7 µM (active)
